Experimental data taken from patent US20230398227A1, “MEDICINE FOR TREATING CANCER” (CHIOME BIOSCIENCE INC., priority 2020, published 2023).

Experiments:
Hep3B xenograft tumor [1] = test: Immunostaining for Ki-67 and cleaved caspase-3 in Hep3B xenograft tumor at 48 hours after administration; assay type: in vivo, NOD-SCID mice; settings: HuBA-1-3D 1 mg/kg i.p., H3B-6527 50 mg/kg, FGF-401 10 mg/kg, BLU-554 30 mg/kg oral, alone or combined
Experimental: (§1) Hep3B cells (1×10^6 cells) were transplanted subcutaneously into the right flank of NOD-SCID mice. At the stage where the tumor volume reached 250 to 350 mm 3, these mice were divided into the following 8 groups of 6 mice each, and administered from the same day: • the Vehicle group; • the group receiving HuBA-1-3D (1 mg/kg); • the group receiving H3B-6527 (50 mg/kg); • the group receiving FGF-401 (10 mg/kg); • the group receiving BLU-554 (30 mg/kg); • the group receiving HuBA-1-3D (1 mg/kg)+H3B-6527 (50 mg/kg); • the group receiving HuBA-1-3D (1 mg/kg)+FGF-401 (10 mg/kg); and • the group receiving HuBA-1-3D (1 mg/kg)+BLU-554 (30 mg/kg).
(§2) HuBA-1-3D was intraperitoneally administered, while FGFR4 inhibitors (H3B-6527, FGF-401 and BLU-554) were orally administered. At 48 hours after administration, three mice in each group were sacrificed to excise their tumors, and the tumors were fixed in 10% formalin and then embedded in paraffin to prepare sections for immunostaining. In addition, tissue extracts were prepared for Western blotting.
Cancer cell proliferation and apoptosis in the Hep3B tumor at 48 hours after administration were analyzed by immunostaining in which Ki-67 or cleaved caspase-3 expression was used as an indicator.

Hep3B xenograft tumor [2] = test: Western blotting of apoptosis markers and cyclin B1 in Hep3B xenograft tumor at 48 hours after administration; assay type: in vivo, NOD-SCID mice; settings: three animals per group, HuBA-1-3D 1 mg/kg, H3B-6527 50 mg/kg, FGF-401 10 mg/kg, BLU-554 30 mg/kg
Experimental: as §1, §2
Subsequently, apoptosis (cleaved caspase-3 and Cleaved PARP) and cancer cell proliferation (cyclin B1) in the Hep3B xenograft tumor upon administration of each agent were analyzed by Western blotting.

[3] = system: human hepatic cancer cell line Hep3B xenograft; test: Antitumor effect in Hep3B xenograft therapeutic model, HuBA-1-3D and FGF-401; assay type: in vivo, NOD-SCID mice; settings: alone or combined
Text: (§3) Then, in an attempt to further verify the enhancing effect on antitumor activity upon combined administration of HuBA-1-3D antibody and FGFR4 inhibitor (FGF-401), the antitumor effect obtained upon combined administration of FGF-401 and HuBA-1-3D was studied in a xenograft therapeutic model based on the human hepatic cancer cell line Hep3B, wherein FGF-401 inhibits FGFR4-specific tyrosine kinase activity by specifically binding to cysteine at amino acid position 552 of the ATP-binding region present in the region located at amino acid positions 545 to 562 of FGFR4 (Mol. Cancer Ther. 2019 December; 18(12):2194-2206), as in the case of H3B-6527.
Hep3B cells (1×10^6 cells) were transplanted subcutaneously into the right flank of NOD-SCID mice (Day 0). At the stage where the mean tumor volume exceeded 100 mm^3 (Day 14), the mice were divided into the following 6 groups, and administered from the same day: • the Vehicle group (N=8); • the group receiving FGF-401 (10 mg/kg body weight, twice a day) (N=8); • the group receiving HuBA-1-3D (0.3 mg/kg body weight) (N=8); • the group receiving HuBA-1-3D (1 mg/kg body weight) (N=8); • the group receiving FGF-401 (10 mg/kg body weight) and HuBA-1-3D (0.3 mg/kg body weight) (N=8); and • the group receiving FGF-401 (10 mg/kg body weight) and HuBA-1-3D (1 mg/kg body weight) (N=8).
HuBA-1-3D was intraperitoneally administered once a day 4 times in total on Days 14, 17, 21 and 24, while FGF-401 was orally administered twice a day 10 times in total on Days 14, 15, 16, 17, 18, 21, 22, 23, 24 and 25. The combined administration of HuBA-1-3D and FGF-401 was performed 4 times in total on Days 14, 17, 21 and 24. In each group, a mouse whose tumor volume exceeded 1,500 mm^3 was sacrificed at that point of time.

[4] = system: human hepatic cancer cell line Hep3B xenograft; test: Antitumor effect in Hep3B xenograft therapeutic model, HuBA-1-3D and CH518324/Debio1347; assay type: in vivo, mice; settings: alone or combined
Text: In each group, a mouse whose tumor volume exceeded 1,500 mm^3 was sacrificed at that point of time.

FGFR4 = FGFR4 (Homo sapiens, UniProt P22455); settings: reported in Mol Cancer Ther (2014); 13(11); 2547-58; read-out: tyrosine kinase inhibitory activity (IC50) against FGFR4; cited from earlier work
FGFR4, sequence (P22455 22-802): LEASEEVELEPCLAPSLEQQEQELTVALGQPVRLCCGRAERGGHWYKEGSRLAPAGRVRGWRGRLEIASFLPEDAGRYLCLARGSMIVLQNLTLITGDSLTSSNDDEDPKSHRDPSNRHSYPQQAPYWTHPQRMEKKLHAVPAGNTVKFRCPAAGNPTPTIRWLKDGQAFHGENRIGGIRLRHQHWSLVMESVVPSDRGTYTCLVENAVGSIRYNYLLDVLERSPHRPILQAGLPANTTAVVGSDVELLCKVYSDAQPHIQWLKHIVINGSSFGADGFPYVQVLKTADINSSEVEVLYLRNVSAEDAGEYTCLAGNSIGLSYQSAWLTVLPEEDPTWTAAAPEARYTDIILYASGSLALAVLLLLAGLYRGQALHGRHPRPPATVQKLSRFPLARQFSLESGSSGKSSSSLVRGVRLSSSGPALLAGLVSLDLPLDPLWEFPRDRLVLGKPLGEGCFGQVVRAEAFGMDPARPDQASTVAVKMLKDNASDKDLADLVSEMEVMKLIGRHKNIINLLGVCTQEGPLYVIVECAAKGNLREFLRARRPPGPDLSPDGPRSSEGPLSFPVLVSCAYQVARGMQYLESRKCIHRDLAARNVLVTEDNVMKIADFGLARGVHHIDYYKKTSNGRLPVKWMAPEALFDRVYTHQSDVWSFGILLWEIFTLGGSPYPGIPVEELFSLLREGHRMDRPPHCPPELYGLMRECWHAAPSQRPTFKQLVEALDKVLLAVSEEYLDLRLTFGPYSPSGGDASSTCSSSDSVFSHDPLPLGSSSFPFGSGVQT

[5] = system: human hepatic cancer cell line Hep3B xenograft; test: Antitumor effect in Hep3B xenograft therapeutic model, HuBA-1-3D and H3B-6527; assay type: in vivo, NOD-scid mice; settings: alone or combined
Text: The antitumor effect obtained upon combined administration of HuBA-1-3D antibody and H3B-6527 serving as a small molecule inhibitor against FGFR4 (Cancer Res. 2017 Dec. 15; 77(24):6999-7013) was studied in a xenograft therapeutic model based on the human hepatic cancer cell line Hep3B. • (1) Hep3B cells were transplanted subcutaneously into the right flank of NOD-scid mice (Day 0). At the stage where the mean tumor volume reached around 100 mm^3 (Day 14), the mice were divided into the following 6 groups, and administered from the same day for 11 days with HuBA-1-3D at a frequency of twice a week (Days 14, 18, 22 and 25) and/or with H3B-6527 twice a day (BID) and five times a week in a cycle of administration for 5 days and withdrawal for 2 days (Days 14, 15, 16, 17, 18, 21, 22, 23, 24 and 25): • the Vehicle group (N=8) • the group receiving H3B-6527 (50 mg/kg body weight, twice a day) (N=8); • the group receiving HuBA-1-3D (0.3 mg/kg body weight) (N=8); • the group receiving HuBA-1-3D (1 mg/kg body weight) (N=8); • the group receiving H3B-6527 (50 mg/kg body weight) and HuBA-1-3D (0.3 • mg/kg body weight) (N=8); and • the group receiving H3B-6527 (50 mg/kg body weight) and HuBA-1-3D (1 mg/kg body weight) (N=8).
The tumor volume was measured at a frequency of twice a week, and an animal whose tumor volume reached 1,500 mm^3 was excluded from observation.

[6] = system: human hepatic cancer cell line Hep3B xenograft; test: Antitumor effect in Hep3B xenograft therapeutic model, HuBA-1-3D and BLU-554; assay type: in vivo, mouse; settings: alone or combined
Text: as §3, with “In” for “Then, in”, “as in the case of the above examples,” for “(FGF-401),”, “BLU-554” for “FGF-401”, “(Cancer Discov.” for “(Mol. Cancer Ther.”, “9(12):1696-1707),” for “18(12):2194-2206),”, “H3B-6527 and FGF-401.” for “H3B-6527.”
Hep3B cells (1×10^6 cells) were transplanted (Day 0), and at the point of time when the mean tumor volume exceeded 100 mm^3 (Day 14), animals were divided into the following 4 groups and administered from the same day: • the Vehicle group (N=8); • the group receiving BLU-554 (30 mg/kg body weight, twice a day) (N=8); • the group receiving HuBA-1-3D (1 mg/kg body weight) (N=8); and • the group receiving BLU-554 (30 mg/kg body weight) and HuBA-1-3D (1 mg/kg body weight) (N=8).
HuBA-1-3D was intraperitoneally administered once a day 4 times in total on Days 14, 17, 21 and 24, while BLU-554 was orally administered twice a day 10 times in total on Days 14, 15, 16, 17, 18, 21, 22, 23, 24 and 25. […]

COCCNc1cc(NC(=O)N2CCCc3cc(CN4CCN(C)CC4=O)c(C=O)nc32)ncc1C#N [FGF-401, N-[5-cyano-4-[(2-methoxyethyl)amino]-2-pyridinyl]-7-formyl-3,4-dihydro-6-[(4-methyl-2-oxo-1-piperazinyl)methyl]-1,8-naphthyridine-1(2H)-carboxamide]
apoptotic cells stained with cleaved caspase-3 in the tumor (Hep3B xenograft tumor [1]): not detected | proportion of cancer cells stained with Ki-67 compared to the Vehicle group (Hep3B xenograft tumor [1]): no change | expression level of cyclin B1 (cell proliferation marker) compared to the Vehicle group (Hep3B xenograft tumor [2]): no difference | expression of apoptosis markers (Cleaved caspase-3 and cleaved PARP) (Hep3B xenograft tumor [2]): induced in none of the three animals | tumor volume ([3]; Day 28 (3 days after final administration), FGF-401 10 mg/kg twice a day oral, HuBA-1-3D 1 mg/kg i.p.): 388.9±94.8 mm^3 | T/C ([3]; Day 28, vs Vehicle, FGF-401 10 mg/kg, HuBA-1-3D 1 mg/kg): 56.8% | antitumor effect compared to tumor volume in the Vehicle group ([3]; Day 35 (10 days after final administration), FGF-401 10 mg/kg, HuBA-1-3D 1 mg/kg, Dunnett): significant antitumor effect

Cc1nc2ccc(-n3ncc(C(=O)c4cc5ccccc5[nH]4)c3N)cc2[nH]1 [CH518324/Debio1347]
mean tumor volume ([4]; Day 31 (6 days after final administration), CH518324/Debio1347 50 mg/kg once a day oral, HuBA-1-3D 1 mg/kg i.p.): 673.8±271.8 mm^3 | T/C ([4]; Day 31, vs Vehicle, CH518324/Debio1347 50 mg/kg, HuBA-1-3D 1 mg/kg): 56.2% | IC50 (FGFR4): 290 nM

C=CC(=O)Nc1cc(N2CCN(CC)CC2)ccc1Nc1cc(N(C)C(=O)Nc2c(Cl)c(OC)cc(OC)c2Cl)ncn1 [H3B-6527, N-{2-[(6-{[(2,6-dichloro-3,5-dimethoxyphenyl)carbamoyl](methyl)amino}-4-pyrimidinyl)amino]-5-(4-ethyl-1-piperazinyl)phenyl}acrylamide]
apoptotic cells stained with cleaved caspase-3 in the tumor (Hep3B xenograft tumor [1]): not detected | proportion of cancer cells stained with Ki-67 compared to the Vehicle group (Hep3B xenograft tumor [1]): no change | expression level of cyclin B1 (cell proliferation marker) compared to the Vehicle group (Hep3B xenograft tumor [2]): no difference | expression of apoptosis markers (Cleaved caspase-3 and cleaved PARP) (Hep3B xenograft tumor [2]): induced in none of the three animals | tumor volume ([5]; Day 32 (7 days after completion of administration), H3B-6527 50 mg/kg twice a day, HuBA-1-3D 1 mg/kg twice a week): 647.8±146.2 mm^3 | T/C ([5]; Day 32, vs Vehicle, H3B-6527 50 mg/kg twice a day, HuBA-1-3D 1 mg/kg): 47% | tumor volume ([5]; Day 38 (13 days after final administration), H3B-6527 50 mg/kg, HuBA-1-3D 1 mg/kg): 1222.0±326.5 mm^3 | tumor presence / tumor disappearance at excision (animals) ([5]; Day 38, H3B-6527 50 mg/kg, HuBA-1-3D 1 mg/kg): all the 8 animals in each group were confirmed to have tumor | tumor weight ([5]; tumors excised on Day 38, H3B-6527 50 mg/kg, HuBA-1-3D 1 mg/kg): 1.010 ± 0.260 g

C=CC(=O)N[C@H]1CCOC[C@H]1Nc1ncc2cc(-c3c(Cl)c(OC)cc(OC)c3Cl)ccc2n1 [BLU-554, N-[(3 S,4S)-3-[[6-(2,6-dichloro-3,5-dimethoxyphenyl)quinazolin-2-yl]amino]oxan-4-yl]prop-2-enamide]
apoptotic cells stained with cleaved caspase-3 in the tumor (Hep3B xenograft tumor [1]): not detected | proportion of cancer cells stained with Ki-67 compared to the Vehicle group (Hep3B xenograft tumor [1]): no change | expression level of cyclin B1 (cell proliferation marker) compared to the Vehicle group (Hep3B xenograft tumor [2]): no difference | expression of apoptosis markers (Cleaved caspase-3 and cleaved PARP) (Hep3B xenograft tumor [2]): induced in none of the three animals | mean tumor volume ([6]; Day 38 (13 days after final administration), BLU-554 30 mg/kg twice a day oral, HuBA-1-3D 1 mg/kg i.p.): 688.8±562.4 mm^3 | T/C ([6]; Day 38, vs Vehicle, BLU-554 30 mg/kg, HuBA-1-3D 1 mg/kg): 63.7%
